Experimental findings from patent US9999619B2, “Piperidin-4-yl azetidine derivatives as JAK1 inhibitors” (Incyte Corporation, priority 2010, dated 2018) are described below.

Molecules are shown by their SMILES. Some results are limits rather than exact numbers.

Common to all, as to type: biochemical
Test [1] concerns the target human JAK1 (a.a. 837-1142) (Homo sapiens, UniProt P23458). Kind of test: In vitro JAK kinase assay (HTRF, phosphorylation of a biotinylated peptide), JAK1. Particulars: measured at 1 mM ATP. The method, boiled down:
(§1)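 N-terminally His-tagged catalytic domains, baculovirus-expressed in insect cells and purified, were used as enzyme. Reactions ran 1 hr at room temperature and were stopped with a mix of 45 mM EDTA, 300 nM SA-APC and 6 nM Eu-Py20. The HTRF signal was read after 40 min of antibody binding.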
(In TR-FRET formats the signal depends on donor and acceptor labels being close together.)

The target in test [2] is human JAK1 (a.a. 837-1142). The description is as above. The settings on record: ratio of JAK2 IC50 to JAK1 IC50, measured at 1 mM ATP. The essentials:
as §1

In another test the target is Jak2 (a.a. 828-1132) (Homo sapiens (Human), UniProt O60674). Kind of test: In vitro JAK kinase assay (HTRF, phosphorylation of a biotinylated peptide), JAK2. The settings on record: measured at 1 mM ATP. The essentials:
as §1

Jak2 (a.a. 828-1132), sequence (O60674 828-1132): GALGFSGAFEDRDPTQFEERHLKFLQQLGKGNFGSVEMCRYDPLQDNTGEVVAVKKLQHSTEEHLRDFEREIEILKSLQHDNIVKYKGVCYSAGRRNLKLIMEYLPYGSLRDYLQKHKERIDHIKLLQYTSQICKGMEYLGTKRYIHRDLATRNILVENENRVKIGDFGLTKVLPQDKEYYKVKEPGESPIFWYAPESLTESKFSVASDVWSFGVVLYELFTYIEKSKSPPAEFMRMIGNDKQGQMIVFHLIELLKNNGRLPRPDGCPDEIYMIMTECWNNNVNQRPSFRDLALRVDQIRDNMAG

With `N#CCC1(n2cc(-c3ncnc4[nH]ccc34)cn2)CN(C2CCN(C(=O)c3c(F)cc(C#N)cc3F)CC2)C1` [Example 83, 4-[(4-{3-(cyanomethyl)-3-[4-(7H-pyrrolo[2,3-d]pyrimidin-4-yl)-1H-pyrazol-1-yl]azetidin-1-yl}piperidin-1-yl)carbonyl]-3,5-difluorobenzonitrile], the IC50 in test [1] is ≤ 0.005 µM; on Jak2 (a.a. 828-1132) it was 0.01 to 0.05 µM. Also, in test [2], the “IC50 Ratio JAK2/JAK1” value was found to be 5.8.
The like results for `N#CCC1(n2cc(-c3ncnc4[nH]ccc34)cn2)CN(C2CCN(C(=O)c3ccc(O)c(Cl)c3)CC2)C1` [Example 84, {1-[1-(3-chloro-4-hydroxybenzoyl)piperidin-4-yl]-3-[4-(7H-pyrrolo[2,3-d]pyrimidin-4-yl)-1H-pyrazol-1-yl]azetidin-3-yl}acetonitrile] were, in that order, ≤ 0.005 µM, 0.01 to 0.05 µM and 6.5.
The like results for `N#CCC1(n2cc(-c3ncnc4[nH]ccc34)cn2)CN(C2CCN(C(=O)c3cncc(C(F)(F)F)n3)CC2)C1` [Example 86, [3-[4-(7H-pyrrolo[2,3-d]pyrimidin-4-yl)-1H-pyrazol-1-yl]-1-(1-{[6-(trifluoromethyl)pyrazin-2-yl]carbonyl}piperidin-4-yl)azetidin-3-yl]acetonitrile] were, in that order, ≤ 0.005 µM, 0.05 to 0.1 µM and 19.4.
The like results for `N#CCC1(n2cc(-c3ncnc4[nH]ccc34)cn2)CN(C2CCN(C(=O)c3cccc4ccccc34)CC2)C1` [Example 87, {1-[1-(1-naphthoyl)piperidin-4-yl]-3-[4-(7H-pyrrolo[2,3-d]pyrimidin-4-yl)-1H-pyrazol-1-yl]azetidin-3-yl}acetonitrile] were, in that order, ≤ 0.005 µM, ≤ 0.01 µM and 0.3.
For `N#CCC1(n2cc(-c3ncnc4[nH]ccc34)cn2)CN(C2CCN(C(=O)c3cnc4ccccc4c3)CC2)C1` [Example 88, {3-[4-(7H-pyrrolo[2,3-d]pyrimidin-4-yl)-1H-pyrazol-1-yl]-1-[1-(quinolin-3-ylcarbonyl)piperidin-4-yl]azetidin-3-yl}acetonitrile], the IC50 in test [1] is 0.005 to 0.02 µM; on Jak2 (a.a. 828-1132) it was ≤ 0.01 µM. Moreover, in test [2], the “IC50 Ratio JAK2/JAK1” value is on record as 0.9.
The like results for `N#CCC1(n2cc(-c3ncnc4[nH]ccc34)cn2)CN(C2CCN(C(=O)c3ccc4ncccc4c3)CC2)C1` [Example 89, {3-[4-(7H-pyrrolo[2,3-d]pyrimidin-4-yl)-1H-pyrazol-1-yl]-1-[1-(quinolin-6-ylcarbonyl)piperidin-4-yl]azetidin-3-yl}acetonitrile] were, in that order, ≤ 0.005 µM, ≤ 0.01 µM and 2.6.
The like results for `N#CCC1(n2cc(-c3ncnc4[nH]ccc34)cn2)CN(C2CCN(C(=O)c3cc4ccccc4s3)CC2)C1` [Example 90, {1-[1-(1-benzothien-2-ylcarbonyl)piperidin-4-yl]-3-[4-(7H-pyrrolo[2,3-d]pyrimidin-4-yl)-1H-pyrazol-1-yl]azetidin-3-yl}acetonitrile] were, in that order, ≤ 0.005 µM, ≤ 0.01 µM and 1.5.
Take `N#CCC1(n2cc(-c3ncnc4[nH]ccc34)cn2)CN(C2CCN(C(=O)c3sc4cc(F)ccc4c3Cl)CC2)C1` [Example 91, {1-{1-[(3-chloro-6-fluoro-1-benzothien-2-yl)carbonyl]piperidin-4-yl}-3-[4-(7H-pyrrolo[2,3-d]pyrimidin-4-yl)-1H-pyrazol-1-yl]azetidin-3-yl}acetonitrile]: the IC50 in test [1] was ≤ 0.005 µM; against Jak2 (a.a. 828-1132), ≤ 0.01 µM. The “IC50 Ratio JAK2/JAK1” value in test [2] came out at 1.7.
On to `N#CCC1(n2cc(-c3ncnc4[nH]ccc34)cn2)CN(C2CCN(C(=O)c3sc4cccc(F)c4c3Cl)CC2)C1` [Example 92, {1-{1-[(3-chloro-4-fluoro-1-benzothien-2-yl)carbonyl]piperidin-4-yl}-3-[4-(7H-pyrrolo[2,3-d]pyrimidin-4-yl)-1H-pyrazol-1-yl]azetidin-3-yl}acetonitrile], for which the figures for the IC50 (in test [1]; at Jak2 (a.a. 828-1132)) were ≤ 0.005 µM and ≤ 0.01 µM, respectively. Further, in test [2], the “IC50 Ratio JAK2/JAK1” value stood at 2.8.
On to `N#CCC1(n2cc(-c3ncnc4[nH]ccc34)cn2)CN(C2CCN(C(=O)c3cc4c(C(F)(F)F)cccc4s3)CC2)C1` [Example 93, [3-[4-(7H-pyrrolo[2,3-d]pyrimidin-4-yl)-1H-pyrazol-1-yl]-1-(1-{[4-(trifluoromethyl)-1-benzothien-2-yl]carbonyl}piperidin-4-yl)azetidin-3-yl]acetonitrile], for which the IC50 was ≤ 0.005 µM in test [1] and ≤ 0.01 µM against Jak2 (a.a. 828-1132). The “IC50 Ratio JAK2/JAK1” value in test [2] was found to be 1.5.
The like results for `N#CCC1(n2cc(-c3ncnc4[nH]ccc34)cn2)CN(C2CCN(C(=O)c3cc4ccc(C(F)(F)F)cc4s3)CC2)C1` [Example 94, [3-[4-(7H-pyrrolo[2,3-d]pyrimidin-4-yl)-1H-pyrazol-1-yl]-1-(1-{[6-(trifluoromethyl)-1-benzothien-2-yl]carbonyl}piperidin-4-yl)azetidin-3-yl]acetonitrile] were, in that order, 0.005 to 0.02 µM, 0.01 to 0.05 µM and 1.0.
With `N#CCC1(n2cc(-c3ncnc4[nH]ccc34)cn2)CN(C2CCN(C(=O)c3cc4cccc(C(F)(F)F)c4s3)CC2)C1` [Example 95, [3-[4-(7H-pyrrolo[2,3-d]pyrimidin-4-yl)-1H-pyrazol-1-yl]-1-(1-{[7-(trifluoromethyl)-1-benzothien-2-yl]carbonyl}piperidin-4-yl)azetidin-3-yl]acetonitrile], the results for the IC50 (in test [1]; against Jak2 (a.a. 828-1132)) were ≤ 0.005 µM and ≤ 0.01 µM, respectively. In addition, the “IC50 Ratio JAK2/JAK1” value in test [2] is listed as 2.7.
On to `N#CCC1(n2cc(-c3ncnc4[nH]ccc34)cn2)CN(C2CCN(C(=O)c3csc4ccccc34)CC2)C1` [Example 96, {1-[1-(1-benzothien-3-ylcarbonyl)piperidin-4-yl]-3-[4-(7H-pyrrolo[2,3-d]pyrimidin-4-yl)-1H-pyrazol-1-yl]azetidin-3-yl}acetonitrile], for which the figures for the IC50 (in test [1]; at Jak2 (a.a. 828-1132)) were ≤ 0.005 µM and ≤ 0.01 µM, respectively. Moreover, the “IC50 Ratio JAK2/JAK1” value in test [2] is 0.5.
`N#CCC1(n2cc(-c3ncnc4[nH]ccc34)cn2)CN(C2CCN(C(=O)C3CCc4ccccc4C3)CC2)C1` (stereo not drawn) [Example 97, {3-[4-(7H-pyrrolo[2,3-d]pyrimidin-4-yl)-1H-pyrazol-1-yl]-1-[1-(1,2,3,4-tetrahydronaphthalen-2-ylcarbonyl)piperidin-4-yl]azetidin-3-yl}acetonitrile]: the half-maximal inhibitory concentration (IC50) in test [1] lay in the range of 0.005 to 0.02 µM; against Jak2 (a.a. 828-1132), 0.01 to 0.05 µM. Further, in test [2], the “IC50 Ratio JAK2/JAK1” value came to 2.2.
For `N#CCC1(n2cc(-c3ncnc4[nH]ccc34)cn2)CN(C2CCN(C(=O)C3CCC(C(F)(F)F)CC3)CC2)C1` (stereo not drawn) [Example 98, {3-[4-(7H-pyrrolo[2,3-d]pyrimidin-4-yl)-1H-pyrazol-1-yl]-1-(1-{[4-(trifluoromethyl)cyclohexyl]carbonyl}piperidin-4-yl)azetidin-3-yl]acetonitrile] the same measures were 0.005 to 0.02 µM, 0.05 to 0.1 µM and 3.7.
Turning to `N#CCC1(n2cc(-c3ncnc4[nH]ccc34)cn2)CN(C2CCN(C(=O)C3CCC(F)(F)CC3)CC2)C1` [Example 100, {1-{1-[(4,4-difluorocyclohexyl)carbonyl]piperidin-4-yl}-3-[4-(7H-pyrrolo[2,3-d]pyrimidin-4-yl)-1H-pyrazol-1-yl]azetidin-3-yl}acetonitrile], the results for the IC50 (in test [1]; against Jak2 (a.a. 828-1132)) were 0.005 to 0.02 µM and 0.05 to 0.1 µM, respectively. In addition, the “IC50 Ratio JAK2/JAK1” value in test [2] turned out to be 6.6.

Broadly, the IC50 is the concentration that gives 50% inhibition.
